From patent US10414778B2, “Methods for treatment of resistant cancer” (New Mexico Tech University Research Park Corporation, priority 2016, dated 2019) come the findings set out here.

SMILES strings stand for the structures. Read-outs that look alike come from different tables or passages of the source.

One assay relates to HeLa cells. The assay is described as follows: MTT in vitro growth inhibition assay, HeLa. In kind it is cell-based, human. As to conditions: Homo sapiens, HeLa, two independent experiments. The procedure:
(§1) Human cancer cell lines were obtained from the American Type Culture Collection (ATCC, Manassas, Va., USA), the European Collection of Cell Culture (ECACC, Salisbury, UK), and the Deutsche Sammlung von Mikroorganismen und Zellkulturen (DSMZ, Braunschweig, Germany). Human cervical adenocarcinoma HeLa cells were cultured in DMEM supplemented with 10% fetal bovine serum (FBS). Human mammary carcinoma MCF-7 cells were cultured in RPMI supplemented with 10% FBS. The U87 cells (ATCC HTB-14) were cultured in DMEM culture medium, while the A549 cells (DSMZ ACC107) were cultured in RPMI culture medium supplemented with 10% heat-inactivated FBS. The GBM Hs683 (ATCC HTB-138) and the T98G (ATCC CRL-1690) cell lines were cultivated in DMEM supplemented with 10% FBS. The GBM U251 cells (ECACC code 09063001) were cultured in 10% MEM. The human uterine sarcoma MES-SA and MES-SA/Dx5 cells were cultured in RPMI-1640 medium supplemented with 10% FBS with MES SA/Dx5 maintained in the presence of 500 nM Doxorubicin (Sigma™). The U373 glioblastoma cells (ECACC 08061901) were cultured in RPMI culture medium supplemented with 10% heat-inactivated FBS.
Spirodienones 4a-m were subjected to in vitro growth inhibition 3-(4,5-dimethylthiazol-2-yl)-2,5-diphenyltetrazolium bromide (MTT) assays against two cell lines, human HeLa cervical and MCF-7 breast adenocarcinomas.
(§2) All compounds were dissolved in DMSO at a concentration of either 100 mM or 50 mM prior to cell treatment. The cells were trypsinized and seeded at various cell concentrations depending on the cell type. The cells were grown for 24 h to 72 h, treated with compounds at concentrations ranging from 0.001 to 100 μM, and incubated for 48, 72, or 96 h in 100 or 200 μL media depending on the cell line used. Cells treated with 0.1% DMSO were used as a negative control, and cells treated with 1 μM phenyl arsine oxide (PAO) were used as a positive control.
To determine the activities of the compounds of the invention toward cancer cells, cell lines treated with different compounds were subjected to an in vitro MTT growth assay using human cervical cancer (HeLa) and human adenocarcinoma (MCF-7) cell lines. The MTT growth assay is a colorimetric assay that measures the metabolic activity of cells via reduction of 3-(4,5-dimethylthiazol-2-yl)-2,5-diphenyltetrazolium bromide (MTT). The reduction of MTT occurs in metabolically-active cells and is characterized by a purple color, which can be quantified via spectrophotometry. A higher absorbance reading indicates a metabolically-active cell, while a low absorbance reading indicates low metabolic activity due to, for example, inhibition of cellular proliferation or cell death.
The values in TABLE 4 are the mean and standard deviation calculated from two independent experiments, which were performed in 4 replicates.

A further assay relates to U373 glioblastoma cells. Put plainly: MTT growth inhibition, U373 glioma. In kind it is cell-based, human. The note with it: Homo sapiens, U373 MG. Here is the method: as §1, §2
(§3) Compound 4l was evaluated for in vitro growth inhibition against a panel of cancer cell lines, including U373, U251, U87, T98G, human GBM, and A549 NSCLC. […] Compound 4l was also evaluated for in vitro growth inhibition against the apoptosis-sensitive tumor model Hs683 anaplastic oligodendroglioma as a reference.
(§4) Due to their high potencies, compounds 5l and 5g were used to determine the effects of the compounds on drug-resistant tumor cells. Drug-resistant cell lines (i.e., glioma: Hs683, U373, U251, U87, T98G; lung cancer: A549, H2073; uterine carcinoma: MES-SA/Dx5) were complemented with drug-sensitive cell lines, H1993 lung cancer and MES-SA uterine cancer, which were used as controls. Bulbispermine and paclitaxel were also used as controls. The GI50 values were calculated after 48-96 hours of treatment with the indicated compounds in replicate using the MTT growth assay.

Another assay has as its system U87 cells. The assay is described as follows: MTT growth inhibition, U87 glioma. In kind it is cell-based, human. The note with it: Homo sapiens, U-87 MG. Here is the method: as §1, §2, §3, §4
The subject of another assay is H1993 cells. Put plainly: MTT growth inhibition, H1993 NSCLC. In kind it is cell-based. The note with it: Homo sapiens. Here is the method: as §2
Drug-resistant cell lines (i.e., glioma: Hs683, U373, U251, U87, T98G; lung cancer: A549, H2073; uterine carcinoma: MES-SA/Dx5) were complemented with drug-sensitive cell lines, H1993 lung cancer and MES-SA uterine cancer, which were used as controls. […] The GI50 values were calculated after 48-96 hours of treatment with the indicated compounds in replicate using the MTT growth assay.

A further assay deals with H2073 cells. The assay is described as follows: MTT growth inhibition, H2073 drug-resistant NSCLC. The note with it: for decrease in potency toward H2073 cells relative to H1993 cells: H2073 versus H1993; for GI50: Homo sapiens, NCI-H2073, MTT. In kind it is cell-based, human. The procedure:
NSCLC cell lines H1993 and H2073 were obtained from the Hamon Center for Therapeutic Oncology Research at UT Southwestern Medical Center and cultured in RPMI-1640 medium (Mediatech, VA, USA) supplemented with 5% heat-inactivated FBS (Mediatech™), 100 units/mL penicillin and 0.1 mg/mL streptomycin (Sigma™). All cell lines were cultured in T25 flasks, maintained, and grown at 37° C., 95% humidity, 5% CO2.
as §2
Spirodienone 4l was evaluated against patient-derived NSCLC cell line H1993 and its drug-resistant variant, H2073. The patient-derived NSCLC cell line […] was obtained from a regrown tumor at a primary site after a patient relapsed several months later.
as §4
Compound 5l was further tested to determine the effect of compounds of the invention on drug-resistant tumor cells. A patient-derived non-small cell lung cancer (NSCLC) line, H1993, and the drug-resistant variant of H1993, H2073, were used for testing. The H1993 cell line was obtained from a lymph node metastasis isolated from the patient prior to chemotherapy. The H2073 cell line was derived from a regrown tumor at the primary site after the patient had relapsed several months after administration of the chemotherapy regimen.

One may read the GI50 as the concentration giving 50% growth inhibition. Turning to `O=C1C=C[C@]23CC[N@](Cc4c2sc2ccccc42)[C@H]3C1` [Compound 5l], the 50% growth inhibitory concentration (GI50) in the assay with HeLa cells (Table 4, 48-hour treatment, mean and standard deviation, read-out: HeLa Cell Viability GI50) was 6.2 ± 1.13 µM; in the assay with U373 glioblastoma cells (Table 5, 48-96 hours of treatment, read-out: GI50, Glioma U373), 7 µM; with U87 cells (Table 5, 48-96 hours of treatment, read-out: GI50, Glioma U87) it was 5 µM; in the assay on H1993 cells (NCI-H1993, Table 5, 48-96 hours of treatment, read-out: GI50, Lung Cancer H1993), 3 µM; in the assay with H2073 cells (Table 5, 48-96 hours of treatment, read-out: GI50, Lung Cancer H2073) it was 11 µM. In addition, the “decrease in potency toward H2073 cells relative to H1993 cells” value with H2073 cells is “less drastic”.

Regarding `O=C1C=CC2(C=C1)CCN(C(=O)C(F)(F)F)Cc1c2sc2ccccc12` [Compound 4l], the 50% growth inhibitory concentration (GI50) in the assay with HeLa cells (48 h treatment, ± SD, read-out: cell viability GI50, HeLa) stood at 10 µM; in the assay on U373 glioblastoma cells (Table 3, 48-96 h treatment, read-out: GI50 in vitro values, glioma U373), 7 µM; in the assay on U87 cells (Table 3, 48-96 h treatment, read-out: GI50 in vitro values, glioma U87) it was 6 µM; in the assay on H1993 cells (NCI-H1993, Table 3, 48-96 h treatment, read-out: GI50 in vitro values, lung cancer H1993), 12 µM; in the assay on H2073 cells (Table 3, 48-96 h treatment, read-out: GI50 in vitro values, lung cancer H2073), 50 µM. Besides, the “decrease in potency toward H2073 cells relative to H1993 cells” value in the assay on H2073 cells is “significantly less pronounced than that observed with paclitaxel”.
